{
  "source": "patent US6107469A",
  "about": "“Minimum recognition unit of a pem mucin tandem repeat specific monoclonal antibody” (Cancer Therapeutics Limited, priority 1991, dated 2000)",
  "tested_on": "immobilised mucin receptor peptide (YVTSAPDTRPAPGST, the epitope sequence from the mucin molecule)",
  "assay": "Equilibrium dialysis binding of I125-labelled EPPT peptides to immobilised mucin receptor peptide",
  "settings": "24-48 hours at room temperature, FIGS. 2 and 3",
  "method": "Preparation of immobilised mucin receptor peptide. 7.5 mg of YVTSAPDTRPAPGST (SEQ ID No 18) (the epitope sequence from the mucin molecule) was dissolved in 100 mM sodium phosphate buffer pH8. This was mixed with 7.5 mg of bovine serum albumin (BSA) and made up to 0.5 ml with buffer. 5 μl of 25% glutaraldehye was added, mixed and left to stand at room temperature for 15 minutes. A further 2.5 μl of glutaraldehyde was then added and the mixture left for a further 15 minutes.\nFollowing the incubation, 100 μl of 1M glycine pH6 was added and left for 10 minutes to quench the glutaraldehyde. The reaction mixture was then aliquoted into 100 μl portions and stored at -20° C. until use.\nRadiolabelling of EPPT peptides prior to binding assays. Peptides were dissolved in phosphate buffered saline, 100 mM sodium phosphate pH8, or 5% DMSO in sodium phosphate. […] 1 ml fractions were collected from the eluate and assayed for radioactivity.\nBinding of EPPT peptides to immobilised mucin receptor peptide. […] Samples are removed from both sides of the membrane and assayed for the presence of radioactivity. […] Following incubation and equilibration, samples were removed from the dialysis module and counted for the presence of I^125. The radioactivity was then converted to amount of peptide for the purposes of determining the amount bound to the immobilised receptor peptide.",
  "note": "“Also recorded” adds a separate entry of the source.",
  "data": [
    {"substance": "H-EPPTRTFAY-OH [EPPTRTFAY, NH2-EPPTRTFAY-COOH]", "values": [
      {"measurement": "binding to the mucin receptor peptide", "value": "no real binding; also recorded: does not itself appear to bind"}
    ]}
  ]
}
